In article PMC3319192 (Molecular Pharmaceutics, 2012) one finds Km data, which are given here for one substance.

The Km is the concentration of substrate that gives half-maximal velocity.

The target in one data set is T1, wildtype OATP1B3 (Homo sapiens, UniProt Q9NPD5).
T1 sequence (Q9NPD5 1-702): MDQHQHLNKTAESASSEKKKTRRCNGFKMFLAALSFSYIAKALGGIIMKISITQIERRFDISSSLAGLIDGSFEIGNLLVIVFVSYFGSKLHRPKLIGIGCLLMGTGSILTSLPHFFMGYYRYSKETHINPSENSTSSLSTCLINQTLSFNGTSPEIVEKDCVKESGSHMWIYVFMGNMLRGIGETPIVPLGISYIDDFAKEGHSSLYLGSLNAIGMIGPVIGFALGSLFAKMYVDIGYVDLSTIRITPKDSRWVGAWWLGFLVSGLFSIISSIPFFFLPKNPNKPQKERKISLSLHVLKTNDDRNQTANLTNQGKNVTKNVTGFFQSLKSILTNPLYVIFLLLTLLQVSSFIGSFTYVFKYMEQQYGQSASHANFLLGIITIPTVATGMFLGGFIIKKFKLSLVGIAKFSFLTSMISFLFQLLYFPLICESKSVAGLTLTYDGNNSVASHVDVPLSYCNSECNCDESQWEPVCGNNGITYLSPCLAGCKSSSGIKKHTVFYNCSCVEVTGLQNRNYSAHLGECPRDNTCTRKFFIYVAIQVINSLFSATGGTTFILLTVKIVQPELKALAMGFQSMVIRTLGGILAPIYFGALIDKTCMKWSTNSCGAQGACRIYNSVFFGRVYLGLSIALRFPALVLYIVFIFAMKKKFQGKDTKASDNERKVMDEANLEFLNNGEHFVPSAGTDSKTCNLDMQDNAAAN

In another data set the target is T2, OATP1B1 A45G/L545S/T615I (Homo sapiens, UniProt Q9Y6L6, A45G/L545S/T615I).
T2 sequence (Q9Y6L6 1-691 A45G/L545S/T615I): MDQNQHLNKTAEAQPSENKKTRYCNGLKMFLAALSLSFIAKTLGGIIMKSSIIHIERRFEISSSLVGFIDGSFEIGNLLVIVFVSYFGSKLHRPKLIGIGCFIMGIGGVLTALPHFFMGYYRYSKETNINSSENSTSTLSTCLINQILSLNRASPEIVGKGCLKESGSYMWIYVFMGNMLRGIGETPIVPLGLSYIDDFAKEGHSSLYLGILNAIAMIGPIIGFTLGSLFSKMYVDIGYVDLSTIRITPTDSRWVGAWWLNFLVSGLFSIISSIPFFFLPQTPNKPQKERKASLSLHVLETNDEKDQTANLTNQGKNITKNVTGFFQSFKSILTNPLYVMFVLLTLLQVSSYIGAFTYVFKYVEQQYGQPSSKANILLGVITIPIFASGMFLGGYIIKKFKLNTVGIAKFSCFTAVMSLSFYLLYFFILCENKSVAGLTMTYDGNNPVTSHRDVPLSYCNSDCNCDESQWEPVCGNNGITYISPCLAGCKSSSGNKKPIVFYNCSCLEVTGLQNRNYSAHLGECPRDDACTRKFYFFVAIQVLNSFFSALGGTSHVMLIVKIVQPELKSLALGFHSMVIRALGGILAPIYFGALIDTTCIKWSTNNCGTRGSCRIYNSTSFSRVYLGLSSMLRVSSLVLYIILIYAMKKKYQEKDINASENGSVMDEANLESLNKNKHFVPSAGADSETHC

With “L-aspartyl-L-tryosyl-L-methionylgylcyl-L-tryptophyl-L-methionyl-L-aspartyl-L-phenylalaninamide hydrogen sulfate ester [CCK-8]”, the Michaelis constant (Km) on wildtype OATP1B3 was found to be 6.5 ± 2 µM; at OATP1B1 A45G/L545S/T615I it was 15.4 ± 4.2 µM.
